Assay results as given in patent US20240309014A1, “MACROCYCLIC COMPOUNDS AND USES THEREOF” (President and Fellows of Harvard College, priority 2017, published 2024).

Columns and labels:
[1] = system: HSC-2-Luc inoculated into tongue; experiment: HSC-2 orthotopic transplantation mouse model; assay type: in vivo, nude mice; conditions: Compound (1) 0.09 mg/kg
[2] = system: human lung cancer cell line NCI-H23; experiment: NCI-H23 growth inhibition assay; assay type: cell-based; conditions: NCI-H23, 72 h, 3 days incubation, CellTiter-Glo
Experimental: (§1) In this assay, the growth inhibitory activities of Compound D-6 (Example 26), E-2, G-4, H-2, 1-2, J-1, K-2, L-6, M-3, and N-1 in a human lung cancer cell line NCI-H23 were measured. NCI-H23 cells were maintained in RPM-1640 (Wako Pure Chemical Industries, Ltd., 187-02021) medium containing 10% fetal bovine serum (FBS: Sigma, 172012), and penicillin and streptomycin (Wako Pure Chemical Industries, Ltd., 168-23191) in a 5% CO2 incubator (37° C.). To each well of a 96 well plate (Becton, Dickinson and Company, 353219), 75 μL of NCI-H23 cell suspension adjusted to a concentration of 4×10^4 cells/mL with the culture medium was added, and the cells were incubated overnight in a 5% CO2 incubator (37° C.). On the next day, 25 μL of each compound in three-fold dilution series suspended in the culture medium was added to each well, and the resultant was incubated for 3 days in a 5% CO2 incubator (37° C.). Then, cell viability was determined by CellTiter-Glo® Luminescent Cell Viability Assay (Promega) with EnVision 2103 Multilabel Reader (Perkin-Elmer, Wellesley, MA). Value of the wells containing cells without adding the test substance was defined as 100% and the value of the wells containing no cells was defined as 0%. The concentration of the test substance necessary for inhibiting the cell growth by 50% (i.e., an IC50 value) was calculated, and summarized in Table 14.

[3] = system: human breast cancer cell line HCC1954; experiment: HCC1954 growth inhibition assay (Test Example 24); assay type: cell-based; conditions: HCC1954, 72 h, 3 days incubation, CellTiter-Glo
Experimental: In this assay, the growth inhibitory activities of Compound D-6 (Example 26), E-2, G-4, H-2, I-2, J-1, K-2, L-6, M-3, and N-1 in a human breast cancer cell line HCCl954 were measured. HCC1954 cells were maintained in RPMI-1640 medium modified to contain 2 mM L-glutamine, 10 mM HEPES, 1 mM sodium pyruvate, 4500 mg/L glucose, and 1500 mg/L sodium bicarbonate (ATCC 30-2001) containing 10% fetal bovine serum (FBS: Sigma, 172012), and penicillin and streptomycin (Wako Pure Chemical Industries, Ltd., 168-23191) in a 5% CO2 incubator (37° C.). To each well of a 96 well plate (Becton, Dickinson and Company, 353219), 75 μL of HCC1954 cell suspension adjusted to a concentration of 4×10^4 cells/mL with the culture medium was added, and the cells were incubated overnight in a 5% CO2 incubator (37° C.). On the next day, 25 μL of each compound in three-fold dilution series suspended in the culture medium was added to each well, and the resultant was incubated for 3 days in a 5% CO2 incubator (37° C.). Then, cell viability was determined by CellTiter-Glo® Luminescent Cell Viability Assay (Promega) with EnVision 2103 Multilabel Reader (Perkin-Elmer, Wellesley, MA). Value of the wells containing cells without adding the test substance was defined as 100% and the value of the wells containing no cells was defined as 0%. The concentration of the test substance necessary for inhibiting the cell growth by 50% (i.e., an IC50 value) was calculated, and summarized in Table 14.

MES-SA cells = experiment: MES-SA growth inhibition assay; assay type: cell-based; conditions: Homo sapiens, 72 h, 3 days incubation, CellTiter-Glo, read-out: Cell growth inhibition IC50 (nM) MES-SA
Experimental: as §1, with “MES-SA” for “NCI-H23”

[4] = in comparison with Halichondrin B; cited from earlier work
[5] = in vitro and in vivo; cited from earlier work

SMILES	ILS (%) ([1]; single agent, Q7Dx3: cetuximab 5 mg/kg, cisplatin 5 mg/kg)	ILS (%) ([1]; with cetuximab 5 mg/kg, Q7Dx3: cisplatin 5 mg/kg)	IC50 [2]	IC50 [3]	IC50 (MES-SA cells)	stability in aqueous solution [4]	activity relative to Halichondrin B [5]
N.N.[Cl][Pt][Cl] [Cisplatin, cisplatin, reference compound]	0%	150%					
C=C1C[C@@H]2CC[C@@]34CC5O[C@H]6[C@@H](O3)[C@H]3O[C@H](CC[C@@H]3O[C@H]6C5O4)CC(=O)O[C@@H]3[C@@H](C)[C@@H]4O[C@@H]5C[C@]6(C[C@@H]7O[C@]8(C[C@H](C)[C@@H]9O[C@H](CO)[C@H](O)C[C@@H]9O8)C[C@H](C)[C@@H]7O6)O[C@@H]5C[C@@H]4O[C@H]3C[C@H]3O[C@@H](CC[C@@H]1O2)C[C@@H](C)C3=C [Compound D-6]			0.022 nM	0.0104 nM	0.0138 nM		
C=C1C[C@@H]2CC[C@@]34CC5O[C@H]6[C@@H](O3)[C@H]3O[C@H](CC[C@@H]3O[C@H]6C5O4)CC(=O)O[C@@H]3[C@@H](C)[C@@H]4O[C@@H]5C[C@]6(C[C@@H]7O[C@]8(C[C@H](C)[C@@H]9O[C@H](CCO)[C@H](O)C[C@@H]9O8)C[C@H](C)[C@@H]7O6)O[C@@H]5C[C@@H]4O[C@H]3C[C@H]3O[C@@H](CC[C@@H]1O2)C[C@@H](C)C3=C [Compound E-2]			0.595 nM	0.0805 nM	0.856 nM		
C=C1C[C@@H]2CC[C@@]34C[C@H]5O[C@H]6[C@@H](O3)[C@H]3O[C@H](CC[C@@H]3O[C@H]6[C@H]5O4)CC(=O)O[C@@H]3[C@@H](C)[C@@H]4O[C@@H]5C[C@]6(C[C@@H]7O[C@]8(C[C@H](C)[C@@H]9O[C@H](CCN)[C@H](O)C[C@@H]9O8)C[C@H](C)[C@@H]7O6)O[C@@H]5C[C@@H]4O[C@H]3C[C@H]3O[C@@H](CC[C@@H]1O2)C[C@@H](C)C3=C [Compound G-4]			0.136 nM	0.0335 nM	0.326 nM		
C=C1C[C@@H]2CC[C@@]34CC5O[C@H]6[C@@H](O3)[C@H]3O[C@H](CC[C@@H]3O[C@H]6C5O4)CC(=O)O[C@@H]3[C@@H](C)[C@@H]4O[C@@H]5C[C@]6(C[C@@H]7O[C@]8(C[C@H](C)[C@@H]9O[C@H](CCOC)[C@H](O)C[C@@H]9O8)C[C@H](C)[C@@H]7O6)O[C@@H]5C[C@@H]4O[C@H]3C[C@H]3O[C@@H](CC[C@@H]1O2)C[C@@H](C)C3=C [Compound I-2]			0.103 nM	0.00624 nM	0.057 nM		
C=C1C[C@@H]2CC[C@@]34C[C@]5(O)O[C@H]6[C@@H](O3)[C@H]3O[C@H](CC[C@@H]3O[C@H]6C5O4)CC(=O)O[C@@H]3[C@@H](C)[C@@H]4O[C@@H]5C[C@]6(C[C@@H]7O[C@]8(C[C@H](C)[C@@H]9O[C@H](CCO)[C@H](O)C[C@@H]9O8)C[C@H](C)[C@@H]7O6)O[C@@H]5C[C@@H]4O[C@H]3C[C@H]3O[C@@H](CC[C@@H]1O2)C[C@@H](C)C3=C [Compound J-1]			0.00992 nM	0.00308 nM	0.0102 nM		
C=C1C[C@@H]2CC[C@@]34CC5O[C@H]6[C@@H](O3)[C@H]3O[C@H](CC[C@@H]3O[C@H]6C5O4)CC(=O)O[C@@H]3[C@@H](C)[C@@H]4O[C@@H]5C[C@]6(C[C@@H]7O[C@]8(C[C@H](C)[C@@H]9O[C@H]([C@@H](O)C[C@@H](O)CN)C[C@@H]9O8)C[C@H](C)[C@@H]7O6)O[C@@H]5C[C@@H]4O[C@H]3C[C@H]3O[C@@H](CC[C@@H]1O2)C[C@@H](C)C3=C [Compound K-2]			0.461 nM	0.07 nM	0.341 nM		
C=C1C[C@@H]2CC[C@@]34C[C@@]5(O)O[C@H]6[C@@H](O3)[C@H]3O[C@H](CC[C@@H]3O[C@H]6[C@H]5O4)CC(=O)O[C@@H]3[C@@H](C)[C@@H]4O[C@@H]5C[C@]6(C[C@@H]7O[C@]8(C[C@H](C)[C@@H]9O[C@H]([C@@H](O)C[C@@H](O)CN)C[C@@H]9O8)C[C@H](C)[C@@H]7O6)O[C@@H]5C[C@@H]4O[C@H]3C[C@H]3O[C@@H](CC[C@@H]1O2)C[C@@H](C)C3=C [Compound L-6]			6.81 nM	0.269 nM	2.79 nM		
C=C1C[C@@H]2CC[C@@]34CC5O[C@H]6[C@@H](O3)[C@H]3O[C@H](CC[C@@H]3O[C@H]6C5O4)CC(=O)O[C@@H]3[C@@H](C)[C@@H]4O[C@@H]5C[C@]6(C[C@@H]7O[C@]8(C[C@H](C)[C@@H]9O[C@H]([C@@H](O)CCO)C[C@@H]9O8)C[C@H](C)[C@@H]7O6)O[C@@H]5C[C@@H]4O[C@H]3C[C@H]3O[C@@H](CC[C@@H]1O2)C[C@@H](C)C3=C [Compound M-3]			0.0199 nM	0.0101 nM	0.0141 nM		
C=C1C[C@@H]2CC[C@@]34CC5O[C@H]6[C@@H](O3)[C@H]3O[C@H](CC[C@@H]3O[C@H]6C5O4)CC(=O)O[C@@H]3[C@@H](C)[C@@H]4O[C@@H]5C[C@]6(C[C@@H]7O[C@]8(C[C@H](C)[C@@H]9O[C@H]([C@@H](O)CCN)C[C@@H]9O8)C[C@H](C)[C@@H]7O6)O[C@@H]5C[C@@H]4O[C@H]3C[C@H]3O[C@@H](CC[C@@H]1O2)C[C@@H](C)C3=C [Compound N-1]			1.53 nM	0.08 nM	2.88 nM		
C=C1C[C@@H]2CC[C@@]34C[C@@]5(O)O[C@H]6[C@@H](O3)[C@H]3O[C@H](CC[C@@H]3O[C@H]6[C@H]5O4)CC(=O)O[C@@H]3[C@@H](C)[C@@H]4O[C@@H]5C[C@]6(C[C@@H]7O[C@]8(C[C@H](C)[C@@H]9O[C@H]([C@@H](O)C[C@@H](O)CO)C[C@@H]9O8)C[C@H](C)[C@@H]7O6)O[C@@H]5C[C@@H]4O[C@H]3C[C@H]3O[C@@H](CC[C@@H]1O2)C[C@@H](C)C3=C [Halichondrin C]						unstable in aqueous solution in comparison with Halichondrin B	
C=C1C[C@@H]2CC[C@@]34C[C@H]5O[C@H]6[C@@H](O3)[C@H]3O[C@H](CC[C@@H]3O[C@H]6[C@H]5O4)CC(=O)O[C@@H]3[C@@H](C)[C@@H]4O[C@@H]5C[C@]6(CC7O[C@@]8(C[C@H](C)C7O6)C[C@H](C)[C@@H]6O[C@H](CC(=O)O)[C@H](O)C[C@@H]6O8)O[C@@H]5CC4O[C@H]3C[C@H]3O[C@@H](CC[C@@H]1O2)C[C@@H](C)C3=C (stereo partly shown) [Norhalichondrin B]							much weaker than Halichondrin B
